Data taken from ChEMBL document CHEMBL1201862, “PubChem BioAssay data set” (2004).
Activity calls are given as the source filed them.

How the values were obtained:
[1] = Trypanosoma cruzi growth suppression in host cells – NIH3T3 host cells, beta-gal luminescence, confirmation (AID 2044); type: functional, cell-based;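 further: intracellular parasites grown in NIH/3T3 mouse fibroblasts as host cells; luminescent beta-galactosidase reporter signal from transgenic T. cruzi replicating inside host cells; inhibitors lower the luminescence signal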
[2] = NIH3T3 cell viability loss – ATP luminescence, mouse fibroblasts, counter-screen, dose response (AID 2010); type: functional, cell-based;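 further: cells exposed to compound for about 90 hours before reading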
Protein Rev = Protein Rev (Human immunodeficiency virus type 1 group M subtype B (isolate HXB2)(HIV-1), UniProt P04618); experiment: blockers of HIV Rev/RRE RNA complex – biochemical, fluorescence polarization, HIV-1, dose response (AID 434976); parameters: species or system Human immunodeficiency virus 1
Protein Rev, sequence (P04618 whole entry): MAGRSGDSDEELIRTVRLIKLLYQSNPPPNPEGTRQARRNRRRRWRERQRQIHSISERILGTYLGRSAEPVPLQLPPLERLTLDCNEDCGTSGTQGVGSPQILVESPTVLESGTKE

Bcl-2-related protein A1 [3] = biological target: T1, Bcl-2-related protein A1 (Mus musculus, UniProt Q07440); experiment: displacement of Bid BH3 peptide from Bfl-1 – biochemical, fluorescence polarization, FITC-Bid, mouse, primary screen (AID 432)
T1 sequence (Q07440 whole entry): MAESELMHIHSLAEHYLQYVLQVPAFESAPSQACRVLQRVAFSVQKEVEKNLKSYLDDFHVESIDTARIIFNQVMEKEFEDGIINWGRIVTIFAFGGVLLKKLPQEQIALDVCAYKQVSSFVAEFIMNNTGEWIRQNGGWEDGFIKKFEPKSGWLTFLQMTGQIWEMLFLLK

Streptokinase A = biological target: T2, Streptokinase A (Streptococcus pyogenes serotype M1, UniProt P10520); experiment: viability-normalized secreted streptokinase activity reduction – plasminogen activation absorbance, OD405, dose response (AID 1914); type: functional, Streptococcus pyogenes M1 GAS;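 further: secreted streptokinase activity via plasminogen activation per viability signal from cell pellet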
T2 sequence (P10520 whole entry): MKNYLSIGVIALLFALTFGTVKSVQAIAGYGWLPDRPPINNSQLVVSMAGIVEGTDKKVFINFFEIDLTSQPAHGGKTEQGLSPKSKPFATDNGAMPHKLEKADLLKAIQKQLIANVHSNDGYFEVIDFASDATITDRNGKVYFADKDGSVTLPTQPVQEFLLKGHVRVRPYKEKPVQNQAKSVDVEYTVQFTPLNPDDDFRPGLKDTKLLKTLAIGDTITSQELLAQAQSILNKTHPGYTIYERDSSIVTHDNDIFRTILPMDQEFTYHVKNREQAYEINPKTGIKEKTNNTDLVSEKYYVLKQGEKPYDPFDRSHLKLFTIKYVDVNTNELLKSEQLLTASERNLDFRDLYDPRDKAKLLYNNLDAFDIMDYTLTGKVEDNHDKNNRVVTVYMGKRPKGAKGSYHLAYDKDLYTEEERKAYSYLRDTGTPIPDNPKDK

Bcl-2-related protein A1 [4] = biological target: T1, Bcl-2-related protein A1; experiment: small-molecule antagonists of Bfl-1/BH3 interaction – biochemical, TR-FRET, mouse Bfl-1, confirmation (AID 621);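 further: TR-FRET binding of GST-Bfl-1 to FITC-labelled Bid peptide via terbium antibody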
[5] = viability of PTEN-deleted HCT116 cells – cell-based, HCT116 PTEN knockout, dose response (AID 1047); type: functional;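 further: HCT116 colon tumor cells with PTEN knocked out; cells exposed to compound for 60 hours before readout; potency for loss of cell viability measured by luminescence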
[6] = viability loss in CEM21 cells – cell-based, CellTiter-Glo luminescence, cherry-picked, cytotoxicity control for viral fusion inhibitor project, dose response (AID 652042); type: functional;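 further: potency for signal decrease meaning cytotoxicity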
[7] = biological target: T3, Tyrosyl-DNA phosphodiesterase 2 (Homo sapiens, UniProt O95551); experiment: potency against TDP2 phosphodiesterase activity – biochemical, epi absorbance, IC50, dose response (AID 743297)
T3 sequence (O95551 whole entry): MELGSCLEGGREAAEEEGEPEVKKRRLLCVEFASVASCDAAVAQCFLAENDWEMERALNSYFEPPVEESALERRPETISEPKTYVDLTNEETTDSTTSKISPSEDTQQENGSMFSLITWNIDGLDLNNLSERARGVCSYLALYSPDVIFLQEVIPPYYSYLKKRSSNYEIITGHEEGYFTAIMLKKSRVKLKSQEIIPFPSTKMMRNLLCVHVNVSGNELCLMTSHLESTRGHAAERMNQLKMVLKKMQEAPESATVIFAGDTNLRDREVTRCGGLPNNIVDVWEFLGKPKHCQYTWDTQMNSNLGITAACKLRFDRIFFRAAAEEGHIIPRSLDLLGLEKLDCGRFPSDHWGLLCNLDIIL

[8] = biological target: T4, 1-phosphatidylinositol 4,5-bisphosphate phosphodiesterase beta-3 (Homo sapiens, UniProt Q01970); experiment: Fluorescence-based biochemical high throughput dose response assay to identify inhibitors of phospholipase C isozymes (PLC-B3).
T4 sequence (Q01970 whole entry): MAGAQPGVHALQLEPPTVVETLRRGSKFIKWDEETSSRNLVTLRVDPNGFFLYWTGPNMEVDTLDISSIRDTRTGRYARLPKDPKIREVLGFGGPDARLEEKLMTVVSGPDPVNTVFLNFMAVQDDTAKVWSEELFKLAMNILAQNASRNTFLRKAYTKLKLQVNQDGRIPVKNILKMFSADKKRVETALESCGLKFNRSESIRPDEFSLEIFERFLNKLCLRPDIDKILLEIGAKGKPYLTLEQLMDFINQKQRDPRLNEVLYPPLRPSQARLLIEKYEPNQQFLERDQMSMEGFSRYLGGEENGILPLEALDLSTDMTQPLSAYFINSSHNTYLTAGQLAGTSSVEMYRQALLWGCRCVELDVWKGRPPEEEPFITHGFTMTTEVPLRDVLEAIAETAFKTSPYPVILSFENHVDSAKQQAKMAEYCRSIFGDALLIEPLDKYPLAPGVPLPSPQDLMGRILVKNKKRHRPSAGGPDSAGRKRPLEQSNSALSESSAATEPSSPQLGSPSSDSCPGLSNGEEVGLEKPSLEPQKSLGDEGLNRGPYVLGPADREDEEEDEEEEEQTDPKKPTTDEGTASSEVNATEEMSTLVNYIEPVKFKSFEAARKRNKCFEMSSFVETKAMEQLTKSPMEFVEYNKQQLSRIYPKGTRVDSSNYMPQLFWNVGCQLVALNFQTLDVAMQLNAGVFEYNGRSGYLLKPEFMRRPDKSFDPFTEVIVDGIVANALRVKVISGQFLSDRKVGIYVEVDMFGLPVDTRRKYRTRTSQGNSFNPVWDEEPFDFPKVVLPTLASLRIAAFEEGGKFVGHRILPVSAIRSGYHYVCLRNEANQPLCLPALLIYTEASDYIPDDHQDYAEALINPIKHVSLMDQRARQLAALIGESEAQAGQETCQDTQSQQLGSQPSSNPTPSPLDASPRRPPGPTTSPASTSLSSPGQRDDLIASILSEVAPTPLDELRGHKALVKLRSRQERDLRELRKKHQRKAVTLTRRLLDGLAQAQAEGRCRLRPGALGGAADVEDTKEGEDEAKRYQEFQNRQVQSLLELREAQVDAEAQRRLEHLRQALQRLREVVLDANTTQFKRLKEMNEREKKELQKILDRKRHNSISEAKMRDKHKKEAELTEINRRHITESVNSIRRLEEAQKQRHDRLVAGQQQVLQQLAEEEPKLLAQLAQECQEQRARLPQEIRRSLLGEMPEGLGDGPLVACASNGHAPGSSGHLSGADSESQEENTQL

[9] = biological target: Interleukin-1 receptor-associated kinase 1 (Homo sapiens, UniProt P51617); type: functional;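 further: IRAK1 tested as one member of a kinome panel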
Interleukin-1 receptor-associated kinase 1, sequence (P51617 whole entry): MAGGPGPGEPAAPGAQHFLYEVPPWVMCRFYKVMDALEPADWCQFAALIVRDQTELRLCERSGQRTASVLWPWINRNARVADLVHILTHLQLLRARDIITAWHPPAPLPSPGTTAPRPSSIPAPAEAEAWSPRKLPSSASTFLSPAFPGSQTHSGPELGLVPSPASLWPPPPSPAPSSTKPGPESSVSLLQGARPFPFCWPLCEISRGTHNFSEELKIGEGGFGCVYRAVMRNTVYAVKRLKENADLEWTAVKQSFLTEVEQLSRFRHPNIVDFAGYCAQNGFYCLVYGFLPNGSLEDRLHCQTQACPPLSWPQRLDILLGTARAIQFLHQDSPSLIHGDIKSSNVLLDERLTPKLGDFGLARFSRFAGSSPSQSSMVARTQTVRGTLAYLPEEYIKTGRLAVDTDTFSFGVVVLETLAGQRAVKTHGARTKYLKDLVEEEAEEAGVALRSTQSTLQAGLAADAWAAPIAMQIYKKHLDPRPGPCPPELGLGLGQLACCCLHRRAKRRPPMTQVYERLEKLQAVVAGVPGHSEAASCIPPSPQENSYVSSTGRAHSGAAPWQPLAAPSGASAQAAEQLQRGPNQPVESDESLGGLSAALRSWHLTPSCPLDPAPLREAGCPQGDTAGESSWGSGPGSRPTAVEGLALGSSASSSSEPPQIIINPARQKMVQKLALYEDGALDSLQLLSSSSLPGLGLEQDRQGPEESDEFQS

[10] = biological target: Cyclin-dependent kinase 1 (Homo sapiens, UniProt P06493); type: functional;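 further: Kinome-wide panel profiling, with the target listed as panel member CDC2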
Cyclin-dependent kinase 1, sequence (P06493 whole entry): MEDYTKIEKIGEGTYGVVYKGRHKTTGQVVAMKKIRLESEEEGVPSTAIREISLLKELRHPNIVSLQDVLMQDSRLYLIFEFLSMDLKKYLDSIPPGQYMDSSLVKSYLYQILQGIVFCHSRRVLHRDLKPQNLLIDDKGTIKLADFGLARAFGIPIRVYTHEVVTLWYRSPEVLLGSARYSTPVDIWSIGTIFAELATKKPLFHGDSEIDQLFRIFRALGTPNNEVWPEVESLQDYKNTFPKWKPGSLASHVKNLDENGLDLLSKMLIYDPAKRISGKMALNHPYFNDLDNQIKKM

[11] = biological target: Kappa-type opioid receptor (Homo sapiens, UniProt P41145); type: functional
Kappa-type opioid receptor, sequence (P41145 whole entry): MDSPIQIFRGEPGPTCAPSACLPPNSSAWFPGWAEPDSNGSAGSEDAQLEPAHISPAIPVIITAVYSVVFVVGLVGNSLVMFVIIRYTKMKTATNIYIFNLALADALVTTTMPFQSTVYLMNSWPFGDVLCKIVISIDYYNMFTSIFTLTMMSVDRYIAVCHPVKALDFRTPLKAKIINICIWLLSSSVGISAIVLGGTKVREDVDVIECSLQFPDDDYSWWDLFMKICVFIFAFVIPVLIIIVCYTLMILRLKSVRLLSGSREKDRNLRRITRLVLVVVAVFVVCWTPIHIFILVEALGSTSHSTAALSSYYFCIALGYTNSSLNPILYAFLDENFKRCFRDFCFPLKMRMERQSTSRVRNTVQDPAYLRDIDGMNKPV

[12] = biological target: Mitogen-activated protein kinase 13 (Homo sapiens, UniProt O15264); type: functional
Mitogen-activated protein kinase 13, sequence (O15264 whole entry): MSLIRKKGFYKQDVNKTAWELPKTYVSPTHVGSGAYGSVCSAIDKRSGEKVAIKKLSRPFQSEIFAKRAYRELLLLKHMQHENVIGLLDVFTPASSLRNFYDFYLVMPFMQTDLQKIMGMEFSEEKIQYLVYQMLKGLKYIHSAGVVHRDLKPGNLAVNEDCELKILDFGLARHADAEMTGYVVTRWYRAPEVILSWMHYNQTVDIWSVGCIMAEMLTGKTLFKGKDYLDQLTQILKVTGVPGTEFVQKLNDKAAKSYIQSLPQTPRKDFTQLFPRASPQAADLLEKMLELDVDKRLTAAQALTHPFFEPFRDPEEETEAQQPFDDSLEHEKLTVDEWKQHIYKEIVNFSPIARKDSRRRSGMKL

O=C(O)c1ccc(NC2=C(Cl)C(=O)c3ccccc3C2=O)cc1
EC50 [1]: 2.74 µM (active) | EC50 [2]: 4.97 µM (active)

O=C(O)c1ccc2c3c(ncnc13)-c1ccccc1C2=O
IC50 (Protein Rev): 9.78 µM (active) | IC50 (Bcl-2-related protein A1 [3]): > 100 µM (not active) | EC50 (Streptokinase A): 16 µM (active) | IC50 (Bcl-2-related protein A1 [4]): > 100 µM (not active) | EC50 [5]: 16.1 µM (active)

CCOC(=O)c1c2c(n(Cc3ccccc3)c1C)C(=O)C(=O)c1ccccc1-2
AC50 [6]: 5.84 µM (active) | IC50 [7]: 4.78 µM (active) | IC50 [8]: > 123 µM (inactive)

Cc1ccc2nccc(NC(=O)Nc3cccc(C(F)(F)F)n3)c2c1
Ki [9]: > 7.94 µM (inactive) | Ki [10]: 0.501 µM (active)

Cc1c(/N=C2\C=CC(=O)c3ccccc32)c(=O)n(-c2ccccc2)n1C
IC50 [11]: > 32 µM

COc1cc2c(cc1F)C(c1ccccc1Cl)=Nc1c(n[nH]c1C)N2 [RG-1530]
Ki [12]: > 7.94 µM (inactive)
